From patent US11891386B2, “Indole compounds and their use” (ARIAGEN, INC., priority 2017, dated 2024)
Like-named read-outs stand apart in the source and are kept apart here.

Key:
[1] = system: EMT-6 syngeneic mouse tumor model (breast cancer); assay: Anti-tumor activity, EMT-6 syngeneic mouse tumor model; assay type: in vivo; conditions: for inhibition in vivo at 40 mg/kg: Mus musculus, EMT6, ip, read-out: TGI (tumor growth inhibition)
Description: (§1) This example describes in vivo studies that evaluated the anti-cancer efficacy of the disclosed indole compounds in syngeneic mouse tumor models. Mice implanted subcutaneously with four types of cancer cells were treated with test indole compounds or vehicle controls as described below.
(§2) A monolayer culture of tumor cells was maintained in vitro in DMEM or RPMI1640 medium supplemented with 10% fetal bovine serum at 37° C. in an atmosphere of 5% CO2. Cells in exponential growth phase were harvested and quantitated by cell counter before tumor inoculation. The cell lines used are described in the table below.
(§3) Four subcutaneous syngeneic mouse tumor models were generated by innoculating female BALB/C or C57BL/6 mice with cancer cells at their right lower or front flank as detailed in the table below:
(§4) Each mouse was inoculated subcutaneously with tumor cells in 0.1 mL of PBS. Treatments were started when the mean tumor size reached approximately 80-120 mm^3 (around 100 mm^3). The administration of the indole compounds and the animal number in each study group are shown in the study design. The date of tumor cell inoculation was denoted as day 0.
(§5) The indole compounds were dissolved in DMSO at the final concentration of 26.7 mg/ml and stored at room temperature.
(§6) Randomization of animals was started when the mean tumor size reached approximately 90 mm^3 to form the mouse study groups. The randomization was performed based on “Matched distribution” method using the multi-task method (StudyDirector™ software, version 3.1.399.19)/randomized block design. The mouse groups (ten in each group) were treated with vehicle (DMSO) or the indole compounds at a dose of 40 mg/kg by i.p. injection, QD for 28 days or longer.
(§7) After tumor cell inoculation, the mice were checked daily for morbidity and mortality. During routine monitoring, the mice were checked for tumor growth and any effects of the treatment on behavior such as mobility, food and water consumption, body weight gain/loss (body weights were measured twice per week after randomization), eye/hair matting, and any other abnormalities. Mortality and observed clinical signs were recorded for individual mice in detail.
(§8) Tumor volumes were measured twice per week in two dimensions using a caliper, and the volume was expressed in mm^3 using the formula: V=(L×W×W)/2, where V is tumor volume, L is tumor length (the longest tumor dimension) and W is tumor width (the longest tumor dimension perpendicular to L). Dosing as well as tumor and body weight measurements was conducted in a Laminar Flow Cabinet. The body weights and tumor volumes were measured by using StudyDirector™ software (version 3.1.399.19). Dosing Holiday
Tumor growth inhibition percentage (TGI %) is an indicator for antitumor activity of a drug compound, and expressed as: TGI (%)=100×(1−T/C), where T and C are the mean tumor volume (or weight) of the treated and control groups, respectively, on a given day. Statistical analysis of the difference in mean tumor volume (MTV) among the groups was conducted using the data collected on the day when the MTV of the vehicle group reached the humane endpoints, so that TGI could be derived for all or most mice enrolled in the study.
In Studies 1 and 3, the anti-tumor activity of ARI-001 in parallel with ARI-002 at 160 mg/kg (mpk), and the anti-tumor activity of ARI-087 in parallel with ARI-002 at 40 mpk were assessed using the EMT-6, Pan02, A20, and LL/2 models. Because EMT-6 provides a fast-growing model that enables relatively quick differentiation of performance between compounds, this syngeneic mouse tumor model was chosen for the other studies. In Study 2, the anti-tumor activity of ARI-002 was compared with that of ARI-004 at 10, 40, and 80 mpk. In Study 4, the anti-tumor activity of ARI-087 was compared with that of ARI-140. In Study 5, the anti-tumor activity of ARI-087 was evaluated in parallel with ARI-143 and ARI-149 at 40 mpk. […]

[2] = system: Pan02 syngeneic mouse tumor model (pancreatic cancer); assay: Anti-tumor activity, Pan02 syngeneic mouse tumor model; assay type: in vivo; conditions: Study 3, Pan02, 40 mpk i.p. QD, D60
Description: as §1, §2, §3, §4, §5
Randomization of animals was started when the mean tumor size reached approximately 90 mm^3 to form the mouse study groups. […]
as §7
as §8, with “Dosing as well as tumor and body weight measurements was conducted in a Laminar Flow Cabinet.” left out, “Dosing Holiday” left out
(§9) Tumor growth inhibition percentage (TGI %) is an indicator for antitumor activity of a drug compound, and expressed as: TGI (%)=100×(1−T/C), where T and C are the mean tumor volume (or weight) of the treated and control groups, respectively, on a given day. […]
In Studies 1 and 3, the anti-tumor activity of ARI-001 in parallel with ARI-002 at 160 mg/kg (mpk), and the anti-tumor activity of ARI-087 in parallel with ARI-002 at 40 mpk were assessed using the EMT-6, Pan02, A20, and LL/2 models. […]

[3] = Separate PK study in mice; assay type: in vivo; conditions: data not shown
[4] = system: A20 syngeneic mouse tumor model (B cell lymphoma); assay: Anti-tumor activity, A20 syngeneic mouse tumor model; assay type: in vivo; conditions: for TGI (tumor growth inhibition): Study 3, A20, 40 mpk i.p. QD, D28
Description: as §1, §2, §3, §4, §5, §6, §7, §8, §9
(§10) In Studies 1 and 3, the anti-tumor activity of ARI-001 in parallel with ARI-002 at 160 mg/kg (mpk), and the anti-tumor activity of ARI-087 in parallel with ARI-002 at 40 mpk were assessed using the EMT-6, Pan02, A20, and LL/2 models. […] In Study 5, the anti-tumor activity of ARI-087 was evaluated in parallel with ARI-143 and ARI-149 at 40 mpk. […]

[5] = system: CYP1A1 in human HepG2 cells; assay: EROD assay (7-ethoxy-resorufin-O-deethylase), human HepG2 cells; assay type: cell-based; design: key to activity group based on EC50 values, in the order of increasing activity: (1) active; (2) more active; (3) most active; conditions: for activity group based on EC50 values, in the order of increasing activity: human EROD assay, oxadiazole derivatives of ITE
Description: (§11) CYP1A1 induction is under the control of the AhR signaling pathway. This Example describes an in vitro assay (7-ethoxy-resorufin-O-deethylase (EROD) assay) that evaluated the AhR modulating activities of the indole compounds described herein. In this assay, the indole compounds were incubated with human HepG2 cells or mouse Hepal-6 cells. The activity of CYP1A1 in the cells was measured by the conversion of substrate 7-ethoxyresorufin, with the readout being a fluorescence signal associated with the conversion product. The EC50 values of the indole compounds as well as the maximum […] induced by them in the assay were determined.
(§12) Human HepG2 cells were obtained from Sigma Aldrich (Catalog 85011430-1VL). Mouse Hepal-6 cells also were obtained from Sigma Aldrich (Catalog 92110305-1V).
(§13) Human HepG2 and Mouse Hepal-6 cells were grown to 60-80% confluency in tissue culture flasks, lifted with non-enzymatic cell dissociation solution (cell stripper), seeded in a 384-well plate at 5,000 cells per well, treated with the test compounds, and incubated for 20 hours overnight at 37° C. The treatment medium was removed and a solution of substrate 7-ethoxyresorufin (ETX) was added to initiate the reaction. The plate was incubated at 37° C. for 30 minutes. The reaction was subsequently terminated by adding tempered methanol. Fluorescent emission was measured at 590 nm with excitation at 530 nm in a FLEXSTATION III instrument (Molecular Devices).

[6] = In vivo pharmacokinetic study in Sprague-Dawley rats; conditions: rat; for bioavailability: Sprague-Dawley, plasma, po, 10 mg/kg, PO (10 mg/kg) vs IV (2 mg/kg), read-out: F % (bioavailability); for % of Hepatisc Blood Flow: IV (2 mg/kg)
Description: This example describes pharmacokinetic (PK) studies of the various indole compounds described herein in rats, a rodent species widely used for pre-clinical toxicology evaluation. In the present studies, the test compounds were given to groups of Sprague-Dawley rats (N=3 in each group) intravenously (IV) at 2 mg/kg or orally (PO) at 10 mg/kg. IV doses were formulated in DMSO, while PO doses were formulated in a 50/50 mixture of PEG400 and Tween 80. Blood samples were collected at pre-dose and over a period of 24 hours post-dose. Plasma concentrations of the indole compounds were determined by HPLC.

[7] = system: LL/2 syngeneic mouse tumor model (lung cancer); assay: Anti-tumor activity, LL/2 syngeneic mouse tumor model; assay type: in vivo; conditions: for TGI (tumor growth inhibition): Study 3, LL/2, 40 mpk i.p. QD
Description: as §1, §2, §3, §4, §5, §6, §7, §8, §9, §10

[8] = system: CYP1A1 in mouse Hepal-6 cells; assay: EROD assay (7-ethoxy-resorufin-O-deethylase), mouse Hepa1-6 cells; assay type: cell-based; conditions: EROD assay, 20 hours treatment
Description: as §11, §12, §13

[9] = 648 h, Study 3, EMT-6, 40 mpk i.p. QD, D27

Row | Compound | inhibition in vivo at 40 mg/kg [1, 9] | TGI (tumor growth inhibition) [2] | PK improvement over ARI-001 and ARI-002, in words [3] | TGI (tumor growth inhibition) [4] | activity group based on EC50 values, in the order of increasing activity [5] | activity in the human EROD assay compared to ARI-001 / ARI-002, in words ([5]; human HepG2 cells) | bioavailability [6] | IV PK profile compared to ARI-001, ARI-002, and ARI-004, in words ([6]; IV) | % of Hepatisc Blood Flow [6] | other results
1 | Cc1nc(-c2csc(C(=O)c3c[nH]c4ccccc34)n2)no1 [ARI-030, (1H-indol-3-yl)(4-(5-methyl-1,2,4-oxadiazol-3-yl)thiazol-2-yl)methanone] | 21.9% | 23.5% D60 | confirms the improvement | −0.8% D28 | active | significantly more (about 4 to 900 times more) active than ARI-001 | 0.9% | improved IV PK profiles | 28% | TGI (tumor growth inhibition) ([7]; D28): 8.4% D28
2 | Cc1noc(-c2csc(C(=O)c3c[nH]c4ccccc34)n2)n1 [ARI-031, (1H-indol-3-yl)(4-(3-methyl-1,2,4-oxadiazol-5-yl)thiazol-2-yl)methanone] |  |  | confirms the improvement |  | active | significantly more (about 4 to 900 times more) active than ARI-001 | 6.3% | improved IV PK profiles | 103% | 
3 | CCC(=O)c1csc(C(=O)c2c[nH]c3ccc(F)cc23)n1 [ARI-087, 1-(2-(5-fluoro-1H-indole-3-carbonyl)thiazol-4-yl)propan-1-one] | 56.7% | 64.9% D60 |  | 20.9% D28 |  |  | 19.7% |  | 84% | anti-tumor potency, in words ([1]; EMT-6 model, 40 mpk): better tumor inhibitory activity than parent compound ARI-002; tumor growth and survival, in words ([1]; EMT-6 model, 40 mpk): delayed tumor growth and prolonged survival; complete tumor regression (CR) ([1]; EMT-6 model, Study 4, by day 46): did not result in a CR until day 81; complete tumor regression (CR) ([1]; EMT-6 model, Study 5, by day 51): did not have any animal in CR; animals with tumor volumes<1000 mm^3 ([1]; EMT-6 model, day 27, 40 mpk): 6 out of 10; inhibition in vivo at 40 mg/kg ([1]; 624 h, Study 6, EMT-6, 40 mpk i.p. QD, D26): 52.8%; inhibition in vivo at 40 mg/kg ([1]; 672 h, Study 4, EMT-6, 40 mpk i.p. QD, D28): 29.5%; inhibition in vivo at 40 mg/kg ([1]; 720 h, Study 5, EMT-6, 40 mpk i.p. QD, D30): 42.2%; EC50 [8]: 5.8 nM; tumor inhibitory activity compared to ARI-002, in words ([4]; Study 3, lymphoma model, 40 mpk): better tumor inhibitory activity than parent compound ARI-002; EC50 ([5]; EROD assay, human HepG2 cells, 20 hours treatment): 34.2 nM; IV AUCinf, % of that of ARI-002 ([6]; IV): 45%; plasma clearance, times higher than ARI-002 ([6]; IV): 3.2 times; PO AUCinf, % of that of ARI-002 ([6]; PO): 81%; absolute oral bioavailability, times higher than ARI-002 ([6]; PO): 1.8 times; TGI (tumor growth inhibition) ([7]; D38): 23.3% D38; tumor inhibitory activity compared to ARI-002, in words ([7]; Study 3, lung model, 40 mpk): better tumor inhibitory activity than parent compound ARI-002
